Reference: PMC12259270, “Sensory neuron–expressed FGF13 controls nociceptive signaling in diabetic neuropathy models” (The Journal of Clinical Investigation, 2025)
Residues, ends and D or L forms follow the SMILES beside them. *: point of attachment. NHPh = c1ccc(N*)cc1

System: Na+ currents in hIPSC-derived sensory neurons (RealDRG)
Assay: Whole-cell voltage clamp, hIPSC-derived sensory neurons (RealDRG) with Nav1.8 blocker A-803467
Assay type: cell-based, human
Conditions: for Activation / Peak Density / Steady-State inactivation / Tau (τ) / Long-term inactivation, 2nd Pulse / Long-term inactivation, 3rd Pulse / Long-term inactivation, 4th Pulse: RealDRG
Method: Next, we conducted whole-cell patch-clamp electrophysiological recordings in hIPSC-derived sensory neurons under three conditions: unstimulated and treated with 0.07% ethanol (capsaicin vehicle), treated with capsaicin (100 nM, 10 minutes), and treated with capsaicin plus SB-366791 (10 μM), a selective TRPV1 inhibitor. Each group was exposed to either vehicle (0.01% DMSO) or PW164 (50 μM), with all recordings performed in the presence of the Nav1.8 blocker A-803467 (300 nM) ([41]). The experimental groups are color coded in Figure 2A. Capsaicin caused potentiation of INa (Figure 2A) and induced hyperpolarizing shifts in the V1/2 of activation (Figure 2B) and SSI (Figure 2C). […] Next, we investigated whether silencing FGF13 could replicate PW164’s effects and prevent additional activity of the compound. hIPSC-derived sensory neurons were transfected with a previously validated pAAV-shFGF13-GFP construct ([42]) (Supplemental Figure 8). […] Neither PW164 nor FGF13 silencing affected Na+ currents in neurons transfected with pAAV-shCTRL-GFP or pAAV-shFGF13-GFP, whether unstimulated or treated with capsaicin in the presence of ProTx II (Supplemental Figure 9 and Supplemental Table 6). Thus, PW164 selectively modulated FGF13-dependent Na^+ current sensitization via TRPV1, with FGF13 silencing mimicking and validating PW164’s effect. […]
Whole-cell patch clamp electrophysiology
HEK293-Nav1.7 cells, HEK293 stably expressing human Nav1.6 (HEK-Nav1.6), HEK293 stably expressing human Nav1.5 (HEK-Nav1.5), human hIPSC-derived sensory neurons (RealDRGTM from Anatomic Incorporated 1020F1-1M) and donor-derived DRG neurons were plated at low density on glass coverslips and processed for whole-cell patch clamp electrophysiology in voltage-clamp and/or current clamp mode. Whole-cell patch electrophysiological experiments were conducted following previously published studies (26). Current densities were obtained by dividing INa amplitude by membrane capacitance. Current –voltage relationships were generated by plotting current density as a function of the […]. Conductance (G Na) was calculated by the […]
where INa is the current amplitude at voltage Vm, and Erev is the Na+ reversal potential.
Activation curves were derived by plotting normalized GNa as a function of test potential and fitted using […]
Where GNa,Max is the maximum conductance, Va is the membrane potential of half-maximal activation, Em is the membrane voltage and k is the slope factor. For steady -state inactivation, normalized current amplitude (INa/INa,Max) at the test potential was plotted as a function of prepulse potential (Vm) and fitted using the […]
Where Vh is the potential of half-maximal inactivation, E m is the membrane voltage, and k is the slope factor.
Transient INa inactivation decay was estimated with the standard exponential equation. Inactivation time constant (tau, τ) was fitted with the following equation: […]
where I(t) is the amplitude of the current at time t and Iss is the steady-state current during a single voltage-step.
The goodness of fitting was determined by correlation coefficient (R), and the cutoff of R was set at 0.85. To observe effects on long-term inactivation (LTI), a four-step protocol was employed during which cells were subjected to four 0 mV, 20 ms depolarization pulses separated by −90 mV, 40 ms recovery intervals. To control for various cell sizes, the current densities were calculated by dividing INa peak current amplitude/membrane capacitance (Cm). To represent the fraction of channels entering into LTI, the peak INa observed during depolarization cycles 2-4 was normalized to the peak INa observed during depolarization cycle 1 (INa/INa,Cycle 1) and plotted as a function of the depolarization cycle.
The cumulative (frequency-dependent) use-dependency was determined by applying 20 pulses with a depolarization to −10 mV (50 ms duration) and 50 ms recovery intervals with a train of 20 pulses at 10 Hz from a holding potential at -70 mV. […]

[1] = + A-803467, Control (pAAV-GFP) + ZL192
[2] = + A-803467, Sh (pAAV-shFGF13-GFP) + ZL192
[3] = + Nav1.8 blocker A-803467, Naive + ZL192
[4] = + Nav1.8 blocker A-803467, Naïve + ZL192

## CC(=O)N[C@@H](Cc1ccccc1)C(=O)N[C@@H](CC(C)C)C(=O)N1CCC[C@H]1C(=O)N[C@@H](CCCCN)C(=O)Nc1ccccc1 [ZL192] (Ac-FLPK-NHPh)
[1]
  Activation: −29.64 ± 0.92 mV
  Peak Density: −189.79 ± 15.05 pA/pF
  Steady-State inactivation: −70.68 ± 1.76 mV
  Tau (τ): 1.09 ± 0.05 ms
+ A-803467, Control + ZL192
  Long-term inactivation, 2nd Pulse: −90.69 ± 2.00 % maximal Na+ current
  Long-term inactivation, 3rd Pulse: −89.18 ± 2.37 % maximal Na+ current
  Long-term inactivation, 4th Pulse: −87.9 ± 2.75 % maximal Na+ current
[2]
  Activation: −22.84 ± 1.28 mV
  Peak Density: −77.34 ± 6.83 pA/pF
  Steady-State inactivation: −61.77 ± 2.40 mV
  Tau (τ): 1.23 ± 0.05 ms
+ A-803467, Sh + Zl192
  Long-term inactivation, 2nd Pulse: −84.46 ± 3.81 % maximal Na+ current
  Long-term inactivation, 3rd Pulse: −82.09 ± 3.89 % maximal Na+ current
  Long-term inactivation, 4th Pulse: −80.59 ± 4.08 % maximal Na+ current
[3]
  Activation: −29.92 ± 0.79 mV
  Peak Density: −181.06 ± 13.74 pA/pF
  Steady-State inactivation: −72.03 ± 0.94 mV
  Tau (τ): 1.31 ± 0.06 ms
[4]
  Long-term inactivation, 2nd Pulse: −90.95 ± 1.82 % maximal Na+ current
  Long-term inactivation, 3rd Pulse: −88.17 ± 2.02 % maximal Na+ current
  Long-term inactivation, 4th Pulse: −86.7 ± 1.7 % maximal Na+ current
ZL192 50 μM, no triggering stimuli
  effect on INa in naive neurons: potentiated INa
